These results are taken from patent US20130137706A1, “Antimicrobial Molecules For Treating Multi-Drug Resistant and Extensively Drug Resistant Strains Of Mycobacterium” (POLYMEDIX, INC., priority 2008, published 2013).

In brackets after ≈: the same amount, converted by molar mass. Where two headings read alike, the source gives them in different places. A value given as a limit tells only on which side of the number the result lay.

By EC50 is commonly meant the midpoint of the concentration-response curve. By IC90 is commonly meant the concentration needed for an effect of 90%.

In one experiment the test system is monkey VERO cells. The experiment can be described thus: VERO cell cytotoxicity assay (luminescent ATP cell viability, 72 hour exposure). It is filed as cell-based. Particulars: Primates.
The test system of experiment [1] is M. tuberculosis (H37Rv strain). The experiment can be described thus: Microplate Alamar Blue Assay (MABA) susceptibility assay in BACTEC 12B medium. It is filed as cell-based. The note with it: Mycobacterium tuberculosis.
[2] abbreviates: Vero, summary of Table 1, read-out: EC50 value (v. Monkey VERO Cells).
Setting [3] is: VERO cells, 72 hour exposure, ATP luminescence, read-out: EC50 VERO cells.
Where [4] appears, read: H37Rv strain, MABA, 90% reduction in fluorescence relative to controls, read-out: IC90 M. tuberculosis (H37Rv strain).
Setting [5] is: Table 1, H37Rv strain, read-out: IC90 value (v. M. tuberculosis).

In the case of `CC(C)(C)c1cc(N)c(SCCNC(=N)N)c(NC(=O)c2cc(OCCNC(=N)N)cc(C(=O)Nc3cc(C(C)(C)C)cc(N)c3SCCNC(=N)N)c2)c1` [Compound 1], the EC50 in the experiment with monkey VERO cells (setting [2]) and in the experiment on monkey VERO cells (setting [3]) was more than 300 µg/mL in each case. Also, the values for the IC90 in experiment [1] (setting [4]) and in experiment [1] (setting [5]) were 2.2 µg/mL (≈ 2.77 µM) and less than 5 µg/mL, respectively.

In the case of `CC(C)(C)c1cc(N)c(SCCNC(=N)N)c(NC(=O)c2cc(C(=O)Nc3cc(C(C)(C)C)cc(N)c3SCCNC(=N)N)c(OCCNC(=N)N)cc2OCCNC(=N)N)c1` [Compound 2], the EC50 with monkey VERO cells (setting [2]) and with monkey VERO cells (setting [3]) was more than 300 µg/mL throughout. Also, the values for the IC90 in experiment [1] (setting [4]) and in experiment [1] (setting [5]) were 4.5 µg/mL (≈ 5.03 µM) and less than 5 µg/mL, respectively.

With `N=C(N)NCCCCC(=O)Nc1cccc(NC(=O)c2cc(C(=O)Nc3cccc(NC(=O)CCCCNC(=N)N)c3SCCN)ncn2)c1SCCN` [Compound 3], the EC50 in the experiment with monkey VERO cells (setting [2]) and in the experiment with monkey VERO cells (setting [3]) was more than 100 µg/mL each time. The IC90 in experiment [1] (setting [4]) is 3.6 µg/mL (≈ 4.61 µM); in experiment [1] (setting [5]), less than 5 µg/mL.

Turning to `CC(C)(C)c1cc(NC(=O)CCCCNC(=N)N)c(SCCN)c(NC(=O)Nc2cc(C(C)(C)C)cc(NC(=O)CCCCNC(=N)N)c2SCCN)c1` [Compound 4], the concentration giving a half-maximal response (EC50) in the experiment on monkey VERO cells (setting [2]) and in the experiment on monkey VERO cells (setting [3]) was more than 300 µg/mL each time. Further, the IC90 was 18.4 µg/mL (≈ 23.4 µM) in experiment [1] (setting [4]) and less than 20 µg/mL in experiment [1] (setting [5]).
